Assay results published in publication PMC6143143 (Biochemistry, 2018).

Columns and labels:
[1] = target: MmCobD (MM2060 protein, full length) (Methanosarcina mazei, UniProt Q8PVB1); assay: ADP-Glo ATPase inhibition assay; type: biochemical; settings: MmCobD 6 μM, HEPES pH 7.5
SeCobD = target: T1, SeCobD (Salmonella enterica, UniProt P97084); assay: […]-NMR and […] TLC decarboxylation assay; type: biochemical; settings: decarboxylated to (R)-1-aminopropan-2-ol O-phosphate; pH 8.5
T1 sequence (P97084 1-364): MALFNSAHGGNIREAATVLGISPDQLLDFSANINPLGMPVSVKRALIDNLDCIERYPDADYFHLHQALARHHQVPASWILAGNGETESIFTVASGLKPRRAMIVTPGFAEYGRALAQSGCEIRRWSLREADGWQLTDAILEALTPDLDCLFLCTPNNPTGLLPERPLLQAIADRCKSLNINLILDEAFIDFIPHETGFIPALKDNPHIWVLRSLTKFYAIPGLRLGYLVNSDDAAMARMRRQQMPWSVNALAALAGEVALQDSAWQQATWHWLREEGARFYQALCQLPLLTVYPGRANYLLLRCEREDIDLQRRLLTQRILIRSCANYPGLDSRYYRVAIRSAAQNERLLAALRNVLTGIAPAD

For `O=P(O)(O)OP(=O)(O)OP(=O)(O)O` [PPPi], the inhibition ([1]; inhibitor 10 mM) was “MmCobD was inhibited in the following order from most inhibitory to least: BeF2>ADP>ADP-γ-S>PPPi>Na3VO4”.
For `[O]=[V]([OH])([OH])[OH]` [Na3VO4], the inhibition ([1]; inhibitor 1 mM, weakest of the series) was “MmCobD was inhibited in the following order from most inhibitory to least: BeF2>ADP>ADP-γ-S>PPPi>Na3VO4”.
`C[C@@H](OP(=O)(O)O)[C@H](N)C(=O)O` [L-Thr-P] was tested, and the “13C-NMR and 14C TLC decarboxylation assay” value (SeCobD) was “conversion of L-Thr-P (peaks A, B, C, D; red) to AP-P”.
